PMC10495264 (Nature Cell Biology, 2023)
Where “and” joins values, the source holds several entries; their conditions need not be identical. Identical values can stand only once. Entries after “also recorded” stand apart in the source; their conditions may differ.

System: T1, Snf1
T1 construct: The Snf1 complex was purified from a genomically C-terminally-tagged Snf1 yeast; TAP (C, cleaved yes); made in house; host or cells: S. cerevisiae strain Snf1-TAP (Open Biosystems)
Assay: Yeast Snf1 kinase activity assay (IVK, Mig1 substrate)
Type: biochemical, Saccharomyces cerevisiae
Set-up: key to In vitro kinase assay Snf1 / In vitro kinase assay Snf1, Mean: Mig1 phosphorylation signal density relative to 0 mM Mal-CoA (=1)
Settings: for In vitro kinase assay Snf1, Mean: 0 mM = 1; for In vitro kinase assay Snf1: Replicates 1-3, 0 mM = 1 (Ext. Fig. 10e)
Experimental: The Snf1 complex was purified from a genomically C-terminally-tagged Snf1 yeast cultured in YPD and washed with water before filtration to induce Snf1 activation. After filtration, the cells were frozen in liquid nitrogen and cryogenically disrupted using a Precellys homogenizer in lysis buffer (50 mM Tris–HCl pH 7.5, 150 mM NaCl, 0.1% NP-40, 10% glycerol, […] and Roche EDTA-free complete protease inhibitor). The cleared lysates were incubated with IgG-coupled Dynabeads (Dynabeads M-270 Epoxy; Invitrogen, Thermo Fisher Scientific) for 2 h at 4 °C. The beads were washed five times with lysis buffer and Snf1 was eluted through cleavage with TEV protease in elution buffer (50 mM Tris–HCl pH 7.5 and 0.5 mM EDTA) and stored at −80 °C after the addition of 10% glycerol. […] To test the effect of Mal-CoA (M4263, Sigma-Aldrich), the kinase reaction was pre-incubated with 2 μl of the compound from a 15× stock solution and threefold serial dilutions for 15 min. […] Proteins were separated by SDS–PAGE and stained with SYPRO Ruby (S4942, Sigma-Aldrich) to assess loading. Substrate phosphorylation was analysed by autoradiography using a Typhoon FLA 9500 phosphorimager (GE Healthcare) and the raw density of the signals was quantified using the gel analysis tool of ImageJ.

SMILES: CC(C)(COP(=O)(O)OP(=O)(O)OCC1OC(n2cnc3c(N)ncnc32)C(O)C1OP(=O)(O)O)C(O)C(=O)NCCC(=O)NCCSC(=O)CC(=O)O (stereo not shown) [Mal-CoA, malonyl-CoA]
- In vitro kinase assay Snf1, Mean (Mal-CoA 0.073 mM): 1.243
- In vitro kinase assay Snf1 (Mal-CoA 0.073 mM): 0.8487 and 1.878 and 1.003
- In vitro kinase assay Snf1, Mean (Mal-CoA 0.22 mM): 0.975
- In vitro kinase assay Snf1 (Mal-CoA 0.22 mM): 1.111 and 0.9316 and 0.8826
- In vitro kinase assay Snf1, Mean (Mal-CoA 2 mM): 0.9179
- In vitro kinase assay Snf1 (Mal-CoA 2 mM): 1.023 and 1.058 and 0.6736
- In vitro kinase assay Snf1, Mean (Mal-CoA 6 mM): 0.7128
- In vitro kinase assay Snf1 (Mal-CoA 6 mM): 0.7619 and 0.8143 and 0.5621
- In vitro kinase assay Snf1, Mean (Mal-CoA […]): 0.967
- inhibition of Snf1 in IVK assay (purified Snf1, His-tagged Mig1 substrate, IC50 not calculated): does not inhibit; also recorded: did not demonstrate substantial inhibitory effects
